How the values were obtained:
Assay type in all cases: biochemical
[1] = biological target: T1, O-acetylserine sulfhydrylase A (OASS-A, CysK) (Salmonella enterica, UniProt P0A1E3); assay: ninhydrin cysteine activity assay; PLP absorbance ([…] to […] nm) and fluorescence changes
T1 construct: recombinant STOASS-A, His-tag removed with factor Xa

[2] = biological target: T2, O-acetylserine sulfhydrylase B (OASS-B, CysM) (Salmonella enterica, UniProt P29848); assay: ninhydrin cysteine activity assay; PLP absorbance and fluorescence changes
T2 construct: recombinant STOASS-B, His-tag removed with factor Xa

[3] = biological target: T1, O-acetylserine sulfhydrylase A (OASS-A, CysK); assay: ninhydrin cysteine activity assay; inactivation kinetics; PLP absorbance and fluorescence changes
[4] = biological target: T2, O-acetylserine sulfhydrylase B (OASS-B, CysM); assay: as above

T2 sequence (P29848 whole entry): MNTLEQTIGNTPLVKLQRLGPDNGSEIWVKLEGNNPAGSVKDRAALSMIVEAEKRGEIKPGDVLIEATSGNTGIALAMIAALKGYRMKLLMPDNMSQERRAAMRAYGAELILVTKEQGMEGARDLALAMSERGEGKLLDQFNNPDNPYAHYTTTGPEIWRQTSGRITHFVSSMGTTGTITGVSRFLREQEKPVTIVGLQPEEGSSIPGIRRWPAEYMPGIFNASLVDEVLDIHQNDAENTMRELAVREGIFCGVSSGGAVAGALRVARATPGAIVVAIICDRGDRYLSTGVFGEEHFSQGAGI
T1 sequence (P0A1E3 2-323): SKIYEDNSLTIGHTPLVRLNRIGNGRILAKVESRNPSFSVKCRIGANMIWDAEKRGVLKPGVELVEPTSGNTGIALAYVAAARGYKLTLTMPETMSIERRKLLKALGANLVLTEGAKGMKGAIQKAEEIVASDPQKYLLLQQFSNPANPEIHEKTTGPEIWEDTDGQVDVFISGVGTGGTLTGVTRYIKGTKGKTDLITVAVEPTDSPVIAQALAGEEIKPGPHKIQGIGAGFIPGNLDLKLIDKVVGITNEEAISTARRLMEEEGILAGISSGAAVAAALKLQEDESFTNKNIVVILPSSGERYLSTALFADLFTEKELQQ

Work on `NC(CF)C(=O)O` (stereo not shown) [F-Ala, monofluoroalanine] yielded an IC50 [1] of 480 ± 50 µM and an IC50 [2] of 1290 ± 230 µM.

For `N[C@H](C(=O)O)C(F)(F)F` [triF-Ala, β,β,β-trifluoroalanine], the IC50 [3] was 130 ± 10 µM and the IC50 [4] was 940 ± 60 µM.
